Measured values as given in US20250304620A1, “ANTIMICROBIAL PEPTIDE AND APPLICATION THEREOF” (priority 2023, published 2025).
≈ marks a conversion by molar mass, not a printed value. Marks after values point to notes of the source that are not given here. Non-standard residues stand in square brackets, D forms with d. Residues, ends and D or L forms follow the SMILES beside them. d2Nal = N[C@H](Cc1ccc2ccccc2c1)C(=O)O

Assays:
[1] = test system: Staphylococcus aureus (NRS 384); details: NRS 384, 3 h
Method: Trypsin (250 U/mg, pH=8.0) and AMPs (LV-1 to LV-30) were mixed in a ratio of 1:10 (w/w) and added to a reaction buffer (0.2 M sodium phosphate, 1 mM CaCl2), pH 7.5), and then incubated at 37° C. for 3 h.

[2] = test system: Staphylococcus aureus ATCC 25923; type: cell-based
Summary of the method: (§1)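 Broth microdilution (CLSI), twofold steps, MIC endpoint, 5× in parallel.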

[3] = test system: Candida albicans ATCC MYA-2876; type: cell-based
Summary of the method: as §1

[4] = test system: Escherichia coli ATCC 25922; type: cell-based
Summary of the method: as §1

[5] = test system: Serratia marcescens ATCC 29021; type: cell-based
Summary of the method: as §1

[6] = test system: Candida tropicalis ATCC 750; type: cell-based
Summary of the method: as §1

[7] = test system: Trichophyton ATCC MYA-4438; type: cell-based
Summary of the method: as §1

[8] = test system: Salmonella typhimurium ATCC 14028; type: cell-based
Summary of the method: as §1

Candida utilis ATCC 9950 = type: cell-based
Summary of the method: as §1

[9] = test system: Bacillus subtilis ATCC 6633; type: cell-based
Summary of the method: as §1

Candida krusei ATCC 6258 = type: cell-based
Summary of the method: as §1

[10] = test system: Candida glabrata ATCC 15126; type: cell-based
Summary of the method: as §1

[11] = test system: Corynebacterium ATCC 7715; type: cell-based
Summary of the method: as §1

[12] = test system: Klebsiella pneumoniae ATCC 700603; type: cell-based
Summary of the method: as §1

Enterococcus ATCC 29212 = type: cell-based
Summary of the method: as §1

[13] = test system: Pseudomonas aeruginosa ATCC 27853; type: cell-based
Summary of the method: as §1

[14] = test system: Pseudomonas aeruginosa ATCC 27853; assay: Injectable formulations on mice infected with peritonitis; type: in vivo, ICR mice; details: 1 mg/kg via tail vein, twice a day for 3 days, n = 10; for Average survival times (Days): observed for 14 d
Summary of the method: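 Survival readout: deaths and survival time tracked for 14 d. Treatment was tail-vein injection by body weight, twice a day for 3 consecutive days, starting right after intraperitoneal challenge with 0.2 mL of 1×10^9 CFU/mL P. aeruginosa ATCC 27853 in male and female ICR mice.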

[15] = test system: Staphylococcus aureus (NRS 384); assay: microbe, parasite or virus in culture; type: cell-based; details: NRS 384
Summary of the method: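 MICs were read against S. aureus strain NRS 384 using twofold serial dilution by CLSI microdilution rules. Levofloxacin and Cbf-K16 were the reference controls, and the test was repeated 5 times in parallel.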

[16] = Serum stability assay (residual level by RP-HPLC); details: human
[17] = test system: Shigella flexneri ATCC 12022; assay: MIC against clinically common bacterial strain; type: cell-based
Summary of the method: as §1

[18] = test system: carbapenem-resistant Pseudomonas aeruginosa (CRPA); type: cell-based; details: carbapenem-resistant (CRPA)
Summary of the method: (§2)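 CLSI twofold serial microdilution; MIC read per drug-resistant clinical strain; n = 5 parallel replicates.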

[19] = test system: vancomycin-resistant Enterococcus (VRE); type: cell-based
Summary of the method: as §2

[20] = test system: carbapenem-resistant Klebsiella pneumoniae (CRKP); type: cell-based; details: carbapenem-resistant (CRKP)
Summary of the method: as §2

[21] = test system: carbapenem-resistant Escherichia coli (CREC); type: cell-based; details: carbapenem-resistant (CREC)
Summary of the method: as §2

[22] = test system: Methicillin-resistant Staphylococcus aureus (MRSA); type: cell-based; details: Methicillin-resistant
Summary of the method: as §2

| Compound | Trypsin MIC [1] [µg/mL] | MIC Staphylococcus aureus ATCC 25923 [2] [µg/mL] | MIC Candida albicans ATCC MYA-2876 [3] [µg/mL] | MIC Escherichia coli ATCC 25922 [4] [µg/mL] | MIC Serratia marcescens ATCC 29021 [5] [µg/mL] | MIC Candida tropicalis ATCC 750 [6] [µg/mL] | MIC Trichophyton ATCC MYA-4438 [7] [µg/mL] | MIC Salmonella typhimurium ATCC 14028 [8] [µg/mL] | MIC Candida utilis ATCC 9950 (Candida utilis ATCC 9950) [µg/mL] | MIC Bacillus subtilis ATCC 6633 [9] [µg/mL] | MIC Candida krusei ATCC 6258 (Candida krusei ATCC 6258) [µg/mL] | MIC Candida glabrata ATCC 15126 [10] [µg/mL] | MIC Corynebacterium ATCC 7715 [11] [µg/mL] | MIC Klebsiella pneumoniae ATCC 700603 [12] [µg/mL] | MIC Enterococcus ATCC 29212 (Enterococcus ATCC 29212) [µg/mL] | MIC Pseudomonas aeruginosa ATCC 27853 [13] [µg/mL] | Number of mice that died on each day after infection: day 1 [14] [Mouse] | Number of mice that died on each day after infection: day 2 [14] [Mouse] | Number of mice that died on each day after infection: day 3 [14] [Mouse] | Number of mice that died on each day after infection: day 4 [14] [Mouse] | other results |
| --- | --- | --- | --- | --- | --- | --- | --- | --- | --- | --- | --- | --- | --- | --- | --- | --- | --- | --- | --- | --- | --- |
| CC(=O)N[C@H](CCCNC(=N)N)C(=O)N[C@H](CCCCN)C(=O)N[C@H](CC(C)C)C(=O)N[C@H](CC(C)C)C(=O)N[C@H](Cc1ccc2ccccc2c1)C(=O)N[C@H](CCCNC(=N)N)C(=O)N[C@H](CC(C)C)C(=O)N[C@H](CCCCN)C(=O)N[C@H](Cc1ccc2ccccc2c1)C(=O)N[C@H](CCCNC(=N)N)C(=O)N[C@H](CCCNC(=N)N)C(N)=O [LV-22] (Ac-[dR][dK][dL][dL][d2Nal][dR][dL][dK][d2Nal][dR][dR]-NH2) | 1 | 1 (≈ 0.597 µM) | 8 (≈ 4.78 µM) | 2 (≈ 1.19 µM) | 4 (≈ 2.39 µM) | 8 (≈ 4.78 µM) | 4 (≈ 2.39 µM) | 4 (≈ 2.39 µM) | 16 (≈ 9.56 µM) | 4 (≈ 2.39 µM) | 8 (≈ 4.78 µM) | 8 (≈ 4.78 µM) | 4 (≈ 2.39 µM) | 2 (≈ 1.19 µM) | 2 (≈ 1.19 µM) | 2 (≈ 1.19 µM) | 1 | 1 | 0 | 1 | Number of mice that died on each day after infection: day 5 [14]: 1 Mouse; Average survival times (Days) [14]: 9.6*** Days; MIC against Staphylococcus aureus (NRS 384) [15]: 1 µg/mL (≈ 0.597 µM); remaining at 12 h, 0.91 mg/mL [16]: 97.2%; MIC Shigella flexneri ATCC 12022 [17]: 4 µg/mL (≈ 2.39 µM); MIC CRPA [18]: 8 µg/mL (≈ 4.78 µM); MIC VRE [19]: 4 µg/mL (≈ 2.39 µM); MIC CRKP [20]: 2 µg/mL (≈ 1.19 µM); MIC CREC [21]: 8 µg/mL (≈ 4.78 µM); MIC MRSA [22]: 2 µg/mL (≈ 1.19 µM) |
| CC(=O)N[C@H](CCCCN)C(=O)N[C@H](CCCNC(=N)N)C(=O)N[C@H](CC(C)C)C(=O)N[C@H](CC(C)C)C(=O)N[C@H](Cc1ccc2ccccc2c1)C(=O)N[C@H](CCCCN)C(=O)N[C@H](CC(C)C)C(=O)N[C@H](CCCCN)C(=O)N[C@H](Cc1ccc2ccccc2c1)C(=O)N[C@H](CCCCN)C(=O)N[C@H](CCCNC(=N)N)C(N)=O [LV-23] (Ac-[dK][dR][dL][dL][d2Nal][dK][dL][dK][d2Nal][dK][dR]-NH2) | 1 | 1 (≈ 0.618 µM) | 16 (≈ 9.89 µM) | 2 (≈ 1.24 µM) | 8 (≈ 4.94 µM) | 4 (≈ 2.47 µM) | 16 (≈ 9.89 µM) | 2 (≈ 1.24 µM) | 8 (≈ 4.94 µM) | 4 (≈ 2.47 µM) | 4 (≈ 2.47 µM) | 8 (≈ 4.94 µM) | 4 (≈ 2.47 µM) | 4 (≈ 2.47 µM) | 8 (≈ 4.94 µM) | 2 (≈ 1.24 µM) | 1 | 1 | 0 | 2 | Number of mice that died on each day after infection: day 5 [14]: 0 Mouse; Average survival times (Days) [14]: 9.5*** Days; MIC against Staphylococcus aureus (NRS 384) [15]: 1 µg/mL (≈ 0.618 µM); remaining at 12 h, 0.91 mg/mL [16]: 97.5%; MIC Shigella flexneri ATCC 12022 [17]: 2 µg/mL (≈ 1.24 µM); MIC CRPA [18]: 4 µg/mL (≈ 2.47 µM); MIC VRE [19]: 4 µg/mL (≈ 2.47 µM); MIC CRKP [20]: 8 µg/mL (≈ 4.94 µM); MIC CREC [21]: 2 µg/mL (≈ 1.24 µM); MIC MRSA [22]: 4 µg/mL (≈ 2.47 µM) |
| CC(=O)N[C@H](CCCNC(=N)N)C(=O)N[C@H](CCCNC(=N)N)C(=O)N[C@H](CC(C)C)C(=O)N[C@H](CC(C)C)C(=O)N[C@H](Cc1ccc2ccccc2c1)C(=O)N[C@H](CCCCN)C(=O)N[C@H](CC(C)C)C(=O)N[C@H](CCCCN)C(=O)N[C@H](Cc1ccc2ccccc2c1)C(=O)N[C@H](CCCCN)C(=O)N[C@H](CCCNC(=N)N)C(N)=O [LV-24] (Ac-[dR][dR][dL][dL][d2Nal][dK][dL][dK][d2Nal][dK][dR]-NH2) | 1 | 1 (≈ 0.607 µM) | 8 (≈ 4.86 µM) | 1 (≈ 0.607 µM) | 2 (≈ 1.21 µM) | 8 (≈ 4.86 µM) | 4 (≈ 2.43 µM) | 1 (≈ 0.607 µM) | 8 (≈ 4.86 µM) | 2 (≈ 1.21 µM) | 8 (≈ 4.86 µM) | 4 (≈ 2.43 µM) | 4 (≈ 2.43 µM) | 4 (≈ 2.43 µM) | 4 (≈ 2.43 µM) | 2 (≈ 1.21 µM) | 1 | 2 | 0 | 0 | Number of mice that died on each day after infection: day 5 [14]: 1 Mouse; Average survival times (Days) [14]: 9.4*** Days; MIC against Staphylococcus aureus (NRS 384) [15]: 1 µg/mL (≈ 0.607 µM); remaining at 12 h, 0.91 mg/mL [16]: 98.3%; MIC Shigella flexneri ATCC 12022 [17]: 2 µg/mL (≈ 1.21 µM); MIC CRPA [18]: 8 µg/mL (≈ 4.86 µM); MIC VRE [19]: 2 µg/mL (≈ 1.21 µM); MIC CRKP [20]: 4 µg/mL (≈ 2.43 µM); MIC CREC [21]: 8 µg/mL (≈ 4.86 µM); MIC MRSA [22]: 4 µg/mL (≈ 2.43 µM) |
